Results on six compounds are retold here after ChEMBL document CHEMBL1201862, “PubChem BioAssay data set” (2004).

As a reminder, the AC50 is the concentration giving half of the maximal activity seen. In general, IC50 refers to the point on the concentration scale where inhibition reaches its midpoint. As usually defined, the EC50 is the concentration giving half of the maximal effect. Low readings indicate an effect from little substance, high ones a need for much substance.

The source made the active and inactive calls. A value given as a limit tells only on which side of the number the result lay.

The nature of assay [1]: A375 melanoma cell cytotoxicity, dose response, counter-screen for MITF inhibitor project, CellTiter-Glo luminescence, dry powder, set 6 (AID 624488). The following applies: A-375. Format: functional, cell-based. A general note: Counterscreens check selectivity or assay interference.
The nature of assay [2]: TRPM1 promoter luciferase reporter signal decrease, dose response, MITF inhibitor project, cell-based, SK-MEL-5, dry powder, set 9 (AID 651588). Format: functional. Background: Reporter assays use an easily measured gene product as a stand-in for the process of interest.
Assay [3] is described as follows: MITF Measured in Cell-Based System Using Plate Reader - 2084-01_Inhibitor_Dose_DryPowder_Activity_Set6. It counts as functional.
A short description of assay [4]: A375 melanoma cell viability loss, dose response, counter-screen for MITF inhibitor project, CellTiter-Glo luminescence, dry powder, set 4 (AID 624364).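 Further: A375 melanoma cells are MITF independent so this is a counter screen.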 It counts as functional, cell-based. The note with it: A-375.
Assay [5] is described as follows: SK-MEL-5 parental line viability, dose response, MITF inhibitor project, cell-based, CellTiter-Glo, dry powder, set 6 (AID 624429). It counts as functional. (In general: ATP-based viability assays read luminescence as a measure of living cells.)
A short description of assay [6]: A375 melanoma cell viability loss, dose response, counter-screen for MITF modulator project, CellTiter-Glo luminescence, dry powder, set 9 (AID 651591). Format: functional, cell-based. The following applies: A-375.
Assay [7] is described as follows: A375 melanoma cell cytotoxicity, dose response, counter-screen for MITF inhibitor project, CellTiter-Glo luminescence, dry powder, set 7 (AID 624490). Format: functional, cell-based. The following applies: A-375.
The next assay concerns INS1. Kind of assay: beta cell apoptosis inhibitors, cytokine rescue, dose response, luminescence, retest (AID 449756).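 Further: cell death triggered by IL-1 beta plus TNF-alpha plus IFN-gamma mixture; protective hits raise ATP signal compared with cytokine alone wells.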 It counts as functional, cell-based. The following applies: Rattus norvegicus.
Assay [8] deals with T1, Microphthalmia-associated transcription factor (Homo sapiens, UniProt O75030).
T1 sequence (O75030 whole entry): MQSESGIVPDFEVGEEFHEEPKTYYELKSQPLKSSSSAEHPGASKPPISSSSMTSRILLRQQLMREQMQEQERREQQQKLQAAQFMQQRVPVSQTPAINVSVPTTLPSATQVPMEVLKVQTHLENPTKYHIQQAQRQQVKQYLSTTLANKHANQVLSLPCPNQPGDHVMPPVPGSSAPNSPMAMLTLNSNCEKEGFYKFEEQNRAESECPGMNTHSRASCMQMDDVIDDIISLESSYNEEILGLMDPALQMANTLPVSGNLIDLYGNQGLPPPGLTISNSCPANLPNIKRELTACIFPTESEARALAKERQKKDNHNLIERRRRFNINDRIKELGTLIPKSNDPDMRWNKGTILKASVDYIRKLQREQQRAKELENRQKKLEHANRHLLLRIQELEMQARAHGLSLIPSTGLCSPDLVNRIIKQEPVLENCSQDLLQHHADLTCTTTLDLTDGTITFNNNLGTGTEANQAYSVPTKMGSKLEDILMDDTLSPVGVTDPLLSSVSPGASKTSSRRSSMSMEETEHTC
Kind of assay: TRPM1 promoter luciferase signal decrease, dose response, MITF inhibitor project, cell-based, SK-MEL-5, cherry-picked, set 3 (AID 493073).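 Further: SK-MEL-5 melanoma cells with luciferase driven by the MITF target TRPM1 promoter.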 Format: functional.

Assay [9] in a line: cytotoxicity in primary human melanocytes, dose response, cytotoxicity control, cell-based, plate reader, dry powder (AID 651920). It counts as functional.
Assay [10] is described as follows: MITF Orthogonal Assay: SK-MEL-5 CTG Assay Measured in Cell-Based System Using Plate Reader - 2084-02_Inhibitor_Dose_DryPowder_Activity_Set5. Format: functional.
A further assay concerns the target Nonstructural protein 1 (Influenza A virus, UniProt Q194T2). Format: functional, Influenza A virus (A/California/07/2009(H1N1)).
Assay [11] can be described thus: MITF Orthogonal Assay: MALME3 CTG Assay Measured in Cell-Based System Using Plate Reader - 2084-04_Inhibitor_Dose_DryPowder_Activity_Set6. Format: functional. The following applies: MALME-3.
The nature of assay [12]: MITF Measured in Cell-Based System Using Plate Reader - 2084-01_Inhibitor_Dose_DryPowder_Activity_Set7. Format: functional.
Assay [13] can be described thus: SK-MEL-5 parental cell viability reduction, dose response, orthogonal assay for MITF inhibitor project, CellTiter-Glo luminescence, dry powder, set 8 (AID 651586). It counts as functional, cell-based.
Assay [14] in a line: MALME3 melanoma cell viability reduction, dose response, orthogonal assay for MITF inhibitor project, CellTiter-Glo luminescence, dry powder, set 5 (AID 651584). It counts as functional, cell-based. The note with it: MALME-3.
In assay [15] the target is Neuropeptides B/W receptor type 1 (Homo sapiens, UniProt P48145). Kind of assay: Fluorescence-based dose response cell-based high throughput screening assay to identify antagonists of the G-protein coupled receptor 7 (GPR7). [Related pubchem assays: 1952 (Screening assay (GPR7 antagonists).), 1880 (Summary AID.)]. It counts as functional.
Sequence of Neuropeptides B/W receptor type 1 (P48145 whole entry): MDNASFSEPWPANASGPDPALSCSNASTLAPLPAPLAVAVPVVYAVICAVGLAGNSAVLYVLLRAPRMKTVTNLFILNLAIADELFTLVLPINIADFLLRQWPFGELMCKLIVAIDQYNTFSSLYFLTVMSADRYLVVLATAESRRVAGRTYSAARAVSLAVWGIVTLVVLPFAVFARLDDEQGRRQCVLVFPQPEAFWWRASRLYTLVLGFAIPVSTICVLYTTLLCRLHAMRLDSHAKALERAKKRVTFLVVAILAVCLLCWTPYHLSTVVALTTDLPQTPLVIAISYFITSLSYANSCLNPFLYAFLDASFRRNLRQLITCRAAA
Assay [16] concerns the target Melanin-concentrating hormone receptor 1 (Homo sapiens, UniProt Q99705). Kind of assay: Fluorescence-based counterscreen for antagonists of the G-protein coupled receptor 7 (GPR7): cell-based high throughput dose response assay to identify antagonists of the melanin-concentrating hormone receptor 1 (MCHR1). It counts as functional.
Assay [17] concerns the target T2, Heat shock factor protein 1 (Mus musculus, UniProt P38532).
T2 sequence (P38532 whole entry): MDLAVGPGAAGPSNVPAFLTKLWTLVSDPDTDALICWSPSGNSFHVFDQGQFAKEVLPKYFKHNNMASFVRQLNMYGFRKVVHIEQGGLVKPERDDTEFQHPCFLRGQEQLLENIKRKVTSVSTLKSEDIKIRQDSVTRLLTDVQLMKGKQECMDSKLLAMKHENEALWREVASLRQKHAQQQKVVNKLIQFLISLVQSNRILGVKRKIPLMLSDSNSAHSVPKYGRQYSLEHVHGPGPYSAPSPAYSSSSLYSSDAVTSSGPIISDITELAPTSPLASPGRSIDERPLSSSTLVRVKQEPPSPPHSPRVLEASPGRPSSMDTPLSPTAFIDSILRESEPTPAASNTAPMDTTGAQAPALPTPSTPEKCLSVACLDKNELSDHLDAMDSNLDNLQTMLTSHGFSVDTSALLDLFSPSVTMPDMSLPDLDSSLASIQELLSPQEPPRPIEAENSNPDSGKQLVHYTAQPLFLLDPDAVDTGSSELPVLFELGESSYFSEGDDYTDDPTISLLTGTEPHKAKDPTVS
Kind of assay: inhibition of MG132-induced HSE-luciferase signal, confirmation, cell-based, NIH3T3, luminescence, dose retest (AID 2382).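 Further: NIH3T3 fibroblasts with HSF1-driven luciferase reporter stressed by proteasome inhibitor MG132; luminescence from HSF1-driven luciferase expression after 8 hours of MG132 stress.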 It counts as functional.

Assay [18] is described as follows: Luminescent dose response cell-based high throughput screening assay for inhibitors of the Janus kinase 2 mutant JAK2V617F. [Related pubchem assays: 1446 (Primary screen.), 1521 (Confirmation assay.), 1486 (Counter screen.)]. Format: functional.
A further assay addresses Large T antigen (Simian virus 40, UniProt P03070). It counts as functional, Betapolyomavirus macacae.
Assay [19] addresses T3, E3 ubiquitin-protein ligase XIAP (Homo sapiens, UniProt P98170). Briefly: Counter Screen using XIAP-Bir3 for Chemical Antagonists of Bir1/2 domains of IAP-family anti-apoptotic proteins. [Related pubchem assays (depositor defined):AID1018, AID1449, AID1514, AID1638, AID1749, AID1750, AID488957, AID488963].
In assay [20] the target is T3, E3 ubiquitin-protein ligase XIAP. Kind of assay: XIAP antagonists, biochemical, IAP family, fluorescence polarization (AID 1018). Format: functional.
For a further assay, the system named is H9c2. Briefly: cells. It counts as functional, cell-based. The note with it: Rattus norvegicus, H9c2, Myocardium.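 Further: confirmatory concentration-response retest of ultra-high-throughput screening hits for modulation of myocardial damage; cell death induced by hydrogen peroxide oxidative stress; compound pretreatment for 60 min then peroxide exposure for 2 h; potency is for protecting the cells against peroxide damage rather than for killing them.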
The nature of assay [21]: half-maximal inhibitory concentration for glucagon-like peptide-1 release, STC-1 cell line, dose-response (AID 1117345). It counts as functional, cell-based.
A short description of assay [22]: Glucagon-like peptide 1 release potency, NCI-H716 cell line, dose-response, half-maximal inhibitory concentration (AID 1117344). It counts as functional, cell-based.
Assay [23] is described as follows: Dose-response inhibition of insulin secretion in a rat insulinoma line at 5 mM glucose (AID 1117331). Format: functional, cell-based. The note with it: INS-1E.
A short description of another assay: cells. Format: functional, cell-based. The following applies: INS-1E.
Assay [24] is described as follows: cytotoxicity toward HT-29 cells – cell-based, CellTiter-Glo luminescence, IC50, dose response (AID 1117330). It counts as functional.
Assay [25] is described as follows: cytotoxicity toward Colo320 cells – cell-based, CellTiter-Glo luminescence, IC50, dose response (AID 1117334). It counts as functional. The note with it: COLO 320.
Assay [26] can be described thus: RKO cell viability reduction, dose response, CellTiter-Glo luminescence (AID 1117322). It counts as functional.
Assay [27] in a line: CellTiter-Glo luminescent dose response of DLD-1 viability loss (AID 1117352). It counts as functional.
Assay [28] is described as follows: HCT116 cell viability decrease, GSK3B pretreatment – CellTiter-Glo, IC50, dose response (AID 1117339). The following applies: HCT-116. It counts as functional.
Assay [29] can be described thus: cytotoxicity toward HCT116 cells – cell-based, CellTiter-Glo luminescence, IC50, dose response (AID 1117332). Format: functional. The following applies: HCT-116.
The nature of assay [30]: Concentration-dependent survival of SW480 colon cancer line, luminescence detection with CellTiter-Glo, half-maximal inhibitory concentration (AID 1117338). Format: functional.
Assay [31] in a line: SNU-C1 cell viability reduction, dose response, CellTiter-Glo luminescence (AID 1117323). It counts as functional, cell-based.

T3 sequence (P98170 whole entry): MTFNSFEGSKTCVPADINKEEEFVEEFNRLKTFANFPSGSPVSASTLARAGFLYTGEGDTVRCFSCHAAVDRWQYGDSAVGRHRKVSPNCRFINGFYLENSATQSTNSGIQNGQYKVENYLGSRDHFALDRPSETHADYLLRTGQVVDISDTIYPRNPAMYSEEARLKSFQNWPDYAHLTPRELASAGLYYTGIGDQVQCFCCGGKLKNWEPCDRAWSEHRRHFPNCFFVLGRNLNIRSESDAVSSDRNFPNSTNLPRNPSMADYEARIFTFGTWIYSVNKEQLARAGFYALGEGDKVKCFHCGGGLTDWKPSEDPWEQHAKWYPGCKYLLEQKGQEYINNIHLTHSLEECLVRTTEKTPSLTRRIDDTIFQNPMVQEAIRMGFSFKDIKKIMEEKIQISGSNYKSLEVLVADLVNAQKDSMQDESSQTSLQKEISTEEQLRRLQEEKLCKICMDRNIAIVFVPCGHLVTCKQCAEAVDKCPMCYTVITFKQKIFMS
Sequence of Large T antigen (P03070 whole entry): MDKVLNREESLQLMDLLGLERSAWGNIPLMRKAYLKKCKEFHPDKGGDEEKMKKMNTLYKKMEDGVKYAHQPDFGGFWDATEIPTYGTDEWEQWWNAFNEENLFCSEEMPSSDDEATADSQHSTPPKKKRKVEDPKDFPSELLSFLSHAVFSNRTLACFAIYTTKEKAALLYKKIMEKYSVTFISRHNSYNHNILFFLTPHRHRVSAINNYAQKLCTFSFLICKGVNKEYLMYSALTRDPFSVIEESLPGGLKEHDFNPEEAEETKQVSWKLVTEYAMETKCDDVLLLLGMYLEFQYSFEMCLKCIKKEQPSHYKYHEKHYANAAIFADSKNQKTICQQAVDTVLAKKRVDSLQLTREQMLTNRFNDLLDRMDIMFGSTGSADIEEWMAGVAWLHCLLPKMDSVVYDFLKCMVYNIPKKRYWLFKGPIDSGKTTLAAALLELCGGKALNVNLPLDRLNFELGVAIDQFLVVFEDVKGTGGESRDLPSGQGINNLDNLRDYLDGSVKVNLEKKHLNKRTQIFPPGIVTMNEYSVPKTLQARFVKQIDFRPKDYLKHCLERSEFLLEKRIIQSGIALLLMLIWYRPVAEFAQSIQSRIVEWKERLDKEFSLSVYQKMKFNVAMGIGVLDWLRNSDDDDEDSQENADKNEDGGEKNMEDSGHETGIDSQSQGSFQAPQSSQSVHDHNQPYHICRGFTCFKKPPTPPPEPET
Sequence of Nonstructural protein 1 (Q194T2 whole entry): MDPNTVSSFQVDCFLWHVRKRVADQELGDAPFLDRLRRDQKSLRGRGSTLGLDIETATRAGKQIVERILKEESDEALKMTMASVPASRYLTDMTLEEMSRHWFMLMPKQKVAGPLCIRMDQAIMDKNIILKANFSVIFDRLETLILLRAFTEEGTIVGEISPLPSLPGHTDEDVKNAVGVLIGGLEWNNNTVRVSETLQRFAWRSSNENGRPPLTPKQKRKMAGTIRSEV
Sequence of Melanin-concentrating hormone receptor 1 (Q99705 whole entry): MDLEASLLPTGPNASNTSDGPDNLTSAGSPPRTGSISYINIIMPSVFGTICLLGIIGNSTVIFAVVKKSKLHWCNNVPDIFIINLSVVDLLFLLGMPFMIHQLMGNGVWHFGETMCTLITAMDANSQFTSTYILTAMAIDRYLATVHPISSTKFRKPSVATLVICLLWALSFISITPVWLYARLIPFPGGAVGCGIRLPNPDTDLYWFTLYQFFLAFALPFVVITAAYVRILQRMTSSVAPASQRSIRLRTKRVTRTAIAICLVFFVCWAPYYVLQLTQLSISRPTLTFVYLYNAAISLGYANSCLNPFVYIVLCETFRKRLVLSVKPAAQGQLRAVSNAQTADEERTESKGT

With `COC1=C(Nc2ccccc2)C(=O)c2ccccc2C1=O`, the AC50 in assay [1] was 43.4 µM (active); in [2], 13.9 µM (active); in assay [3], 5.17 µM (active); in [4], > 70 µM (inactive); in assay [5] it was 3.54 µM (active); in assay [6] it was > 70 µM (inactive). Further, the AC50 was 41.5 µM (active) in assay [7]; 5.64 µM (active) in the assay on INS1; 4.53 µM (active) in assay [8]; 41.9 µM (active) in [9]; 3.1 µM (active) in assay [10]; 12.5 µM (active) in [11]. In addition, the AC50 in [12] was 7.24 µM (active); in assay [13], 6.45 µM (active); in assay [14], 12.5 µM (active). In addition, on Nonstructural protein 1, the 50% inhibitory concentration (IC50) was 12 µM (active).
For `CCCC(CCC)C(=O)Nc1ccc2c(c1)N(C(=O)CCN1CCN(C)CC1)c1ccccc1CC2`, the concentration for half-maximal inhibition (IC50) in [15] was 7.8 µM (active); in assay [16] it was 15.7 µM (not active). Moreover, the EC50 in assay [17] is on record as > 195 µM (not active).
Turning to `COC(=O)/C=C/c1ccc(OC(=O)OC)c(OC(=O)OC)c1`, the half-inhibitory concentration (IC50) is 2.64 µM (active) in [18]; 12.1 µM (active) at Large T antigen; > 100 µM (inactive) in [19]; > 100 µM (not active) in [20]; > 79 µM (inactive) in the assay with H9c2.
Take `CC(C)(C)CC(C)(C)c1ccc(O)c(Cc2ccc(Cl)cc2Cl)c1` [CLOFOCTOL]: the IC50 in [21] was 0.544 µM (active); in [22], 9.07 µM (inactive); in [23] it was > 33.3 µM (inactive).
For `Oc1ccccc1` [PHENOL], the IC50 (in the assay “cells”; in assay [23]) was > 33.3 µM (inactive) throughout.
For the compound `Cc1nnc(NS(=O)(=O)c2ccc(N)cc2)s1` [SULFAMETHIZOLE], the IC50 in [24], in assay [25], in assay [26], in assay [27], in assay [28] and in assay [29] was > 20 µM (inactive) each time. Also, the IC50 in assay [30] and in [31] was > 20 µM (inactive) each time.
